The results in this text go back to patent US4603217A, “Ester substituted alkyl-2-(2,6-dichloroanilino)phenyl acetates” (priority 1983, dated 1986).

Where two headings read alike, the source gives them in different places.

One series relates to carrageenan edema. Briefly: inhibition test of carrageenan edema employing a foot-pad edema method. The series is classed as in vivo, male Wister rats. The settings on record: for ED50: Rattus norvegicus, read-out: ED50 for inhibition for carrageenan edema; for anti-inflammatory activity compared with IM: relative to IM. The text has this: Anti-inflammatory action was investigated according to the method of Winter et al [cf. Pro. Soc. Exp. Biol. Med., 111, 544 (1962)] by the inhibition test of carrageenan edema employing a foot-pad edema method using carrageenan as an irritating agent and male Wister rats weighing 130 to 170 g.

Series [1] in a line: Gastrointestinal ulcer formation action (gastric ulceration). To be noted: rat, po. The protocol: Gastrointestinal ulcer formation action, which is a principal side effect of an acid anti-inflammatory drug, was investigated according to the method of Okabe et al [cf. […] The compounds of the present invention, IM, DF and acemethacin were suspended in 5% Tween-80 solution and administered orally 1 ml/100 g body weight to the rats, respectively. At 6 hrs after the administration, the state of glandstomach was observed by means of a dissecting microscope whether the ulcer having a diameter more than 1 mm was generated or not.

The next series deals with ultraviolet erythema. Briefly: inhibition action for ultraviolet erythema. The format is in vivo, male Hartley guinea pigs. Details: 2 hs after the irradiation, Average ± standard error / 3 hs after the irradiation, Average ± standard error / 5 hs after the irradiation, Average ± standard error: scale not given here; 2 hs after the irradiation, Rate for inhibition / 3 hs after the irradiation, Rate for inhibition / 5 hs after the irradiation, Rate for inhibition: unit not given here. To be noted: for 2 hs after the irradiation, Average ± standard error / 2 hs after the irradiation, Rate for inhibition: 2 hs after irradiation; for 2 hs after the irradiation, Average ± standard error / 2 hs after the irradiation, Rate for inhibition / 3 hs after the irradiation, Average ± standard error / 3 hs after the irradiation, Rate for inhibition / 5 hs after the irradiation, Average ± standard error / 5 hs after the irradiation, Rate for inhibition / duration of the pharmacological effect: guinea pigs; for 3 hs after the irradiation, Average ± standard error / 3 hs after the irradiation, Rate for inhibition: 3 hs after irradiation; for 5 hs after the irradiation, Average ± standard error / 5 hs after the irradiation, Rate for inhibition: 5 hs after irradiation; for duration of the pharmacological effect: ultraviolet erythema, oral. The protocol:
With respect to Compounds 1 to 3, 15 and 21 which are especially useful as an anti-inflammatory drug, IM and DF, inhibition action for ultraviolet erythema was investigated according to the method of Adames et al [cf. Nature, London, 181, 773 (1958)] using guinea pigs as follows: Male Hartley guinea pigs weighing 250 to 350 g were shaved at their sides the day before and two hrs before the ultraviolet irradiation. To the guinea pigs were administered orally Compounds 1 to 3, 15 and 21, IM and DF in amounts as described in Table 2, respectively. To the control group was administered orally only Tween-80. At 1 hr after the time of administration, the guinea pigs were irradiated at their shaved sides by ultraviolet beam for 40 seconds.
The reaction of the ultraviolet erythema was evaluated at 2 hrs, 3 hrs and 5 hrs after irradiation according to the method of Winder et al [cf. Arch. Int. Pharmacodyn., 116, 261 (1958)]. […] Compounds 1 and 2 show a duration of the pharmacological effect over 5 hrs, contrary to that IM has a duration of 2 hrs.

The nature of series [2]: potentiating effect on thiopental-induced sleep in mice. The settings on record: mouse, in vivo, po. The series is classed as in vivo, male ddY mice. The protocol: (§1) Effect on central nervous system, which is another side effect of IM, was investigated according to the potentiating effect on thiopental-induced sleep in mice as follows: Male ddY mice weighing 20 to 24 g were subjected to fasting for 15 hrs. […] At 30 mins after the administration, thiopental sodium was injected intravenously to each of the mice in an amount of 35 mg/l kg body weight, and then, the sleeping time was observed. When the sleeping time of the mice to which the Test Compound was administered was longer than 2 times that of the control to which only Tween-80 was administered, the given Test Compound was judged to be effective on thiopental-induced sleep potentiating effect.

The nature of a further series: in vivo. To be noted: mouse, po.
The subject of the next series is thiopental-induced sleep. The series can be described thus: potentiating effect on thiopental-induced sleep in mice. The series is classed as in vivo, male ddY mice. To be noted: for potentiating effect on thiopental-induced sleep relative to IM: mouse, in vivo. The protocol:
as §1

Series [3] is described as follows: Rate of hydrolysis in rat plasma. The series is classed as in vitro ADME. To be noted: in 1 ml of plasma rat (37° C., incubation for 1 hr). The protocol:
**in 1 ml of plasma rat (37° C., incubation for 1 hr)

Where [4] appears, read: male Wister rats, foot-pad edema.

Broadly, the ED50 is the midpoint of the dose-response relation. The LD50 is the dose expected to kill half of the subjects tested. `COc1ccc2c(c1)c(CC(=O)O)c(C)n2C(=O)c1ccc(Cl)cc1` [IM, indomethacin, reference compound]: the ED50 in the series with carrageenan edema worked out at 5.5 mg/kg. Also, the TD50 at 6 h in series [1] (in vivo) stood at 8 mg/kg. In the series on ultraviolet erythema (3 mg/kg orally), the “2 hs after the irradiation, Average ± standard error” value (“2 hs … Average ± standard error” below) was 2.17 ± 0.307; the “2 hs after the irradiation, Rate for inhibition” value (shortened to “2 hs … for inhibition”) is given as 18.7; the “3 hs after the irradiation, Average ± standard error” value (from here on “3 hs … Average ± standard error”) was found to be 2.5 ± 0.224; the “3 hs after the irradiation, Rate for inhibition” value (“3 hs … for inhibition” below) is 11.7. Moreover, in the series on ultraviolet erythema (3 mg/kg orally), the “5 hs after the irradiation, Average ± standard error” value (“5 hs … Average ± standard error” below) was 2.83 ± 0.167 and the “5 hs after the irradiation, Rate for inhibition” value (shortened to “5 hs … for inhibition”) was 0. For the same compound, in the series on ultraviolet erythema (10 mg/kg orally), the “2 hs … Average ± standard error” value is reported as 1.33 ± 0.217; the “2 hs … for inhibition” value is on record as 50.2; the “3 hs … Average ± standard error” value was 2.83 ± 0.167; the “3 hs … for inhibition” value was 0. Besides, in the series with ultraviolet erythema (10 mg/kg orally), the “5 hs … Average ± standard error” value was found to be 3.0 ± 0 and the “5 hs … for inhibition” value was 0. Also, in the series on ultraviolet erythema, the “duration of the pharmacological effect” value was 2 hrs. Besides, the ED50 in series [2] was found to be 205 mg/kg. Besides, the LD50 in the series “in vivo” was 31.5 mg/kg.

With `O=C(O)Cc1ccccc1Nc1c(Cl)cccc1Cl` [DF, diclofenac, reference compound], the ED50 with carrageenan edema came out at 15 mg/kg. In the series on ultraviolet erythema (3 mg/kg orally), the “2 hs … Average ± standard error” value came to 1.17 ± 0.307; the “2 hs … for inhibition” value stood at 56.2; the “3 hs … Average ± standard error” value stood at 2.17 ± 0.401; the “3 hs … for inhibition” value is 23.3. In the series on ultraviolet erythema (3 mg/kg orally), the “5 hs … Average ± standard error” value stood at 2.67 ± 0.211 and the “5 hs … for inhibition” value was determined as 5.7. In addition, in the series on ultraviolet erythema (10 mg/kg orally), the “2 hs … Average ± standard error” value is 1.17 ± 0.307; the “2 hs … for inhibition” value was 56.2; the “3 hs … Average ± standard error” value is recorded as 2.50 ± 0.342; the “3 hs … for inhibition” value is listed as 11.7. Further, in the series on ultraviolet erythema (10 mg/kg orally), the “5 hs … Average ± standard error” value is given as 2.83 ± 0.167 and the “5 hs … for inhibition” value amounted to 0. Also, in the series with thiopental-induced sleep (mice, oral), the “potentiating effect on thiopental-induced sleep (in words)” value is given as “did not show the potentiating effect”.

Consider `C/C=C/C(=O)OC(C)OC(=O)Cc1c(C)n(C(=O)c2ccc(Cl)cc2)c2ccc(OC)cc12` (centres unmarked) [Compound 10, 1-(Crotonoyloxy)ethyl[1-(p-chlorobenzoyl)-5-methoxy-2-methyl-3-indolyl]acetate], for which the values for the 50% effective dose (ED50) (in the series on carrageenan edema (setting [4]); in series [2]) were 7 mg/kg and 261 mg/kg, respectively. The compound further displayed a TD50 at 6 h in series [1] of 20 mg/kg. Also, the “potentiating effect on thiopental-induced sleep relative to IM” value in the series on thiopental-induced sleep is given as 1/2.5. The compound further displayed a metabolised at 1 h in series [3] of 88.2%. The LD50 in the series “in vivo” came to 65 mg/kg.

For `COc1ccc2c(c1)c(CC(=O)OCOC(=O)C=C(C)C)c(C)n2C(=O)c1ccc(Cl)cc1` [Compound 2, 3,3-Dimethylacryloyloxymethyl[1-(p-chlorobenzoyl)-5-methoxy-2-methyl-3-indolyl]acetate], the ED50 in the series on carrageenan edema (setting [4]) came out at 6 mg/kg. Moreover, the “anti-inflammatory activity compared with IM” value with carrageenan edema was “equal anti-inflammatory activity to IM”. In series [1], this compound came in with a TD50 at 6 h of 20 mg/kg. Moreover, in the series on ultraviolet erythema (3 mg/kg orally), the “2 hs … Average ± standard error” value was 1.83 ± 0.297; the “2 hs … for inhibition” value turned out to be 31.5; the “3 hs … Average ± standard error” value is 1.83 ± 0.207; the “3 hs … for inhibition” value is 35.3. In the series with ultraviolet erythema (3 mg/kg orally), the “5 hs … Average ± standard error” value came out at 2.0 ± 0.174 and the “5 hs … for inhibition” value is 29.3. For the same compound, in the series on ultraviolet erythema (10 mg/kg orally), the “2 hs … Average ± standard error” value is given as 0.83 ± 0.241; the “2 hs … for inhibition” value was determined as 68.9; the “3 hs … Average ± standard error” value was found to be 0.83 ± 0.241; the “3 hs … for inhibition” value was determined as 70.7. In addition, in the series on ultraviolet erythema (10 mg/kg orally), the “5 hs … Average ± standard error” value was found to be 1.0 ± 0.369 and the “5 hs … for inhibition” value turned out to be 64.7. In the series on ultraviolet erythema, the “duration of the pharmacological effect” value was “over 5 hrs”. The compound also had a metabolised at 1 h in series [3] of 78%. Besides, the LD50 in the series “in vivo” worked out at 67 mg/kg.

For the compound `C/C=C/C(=O)OCOC(=O)Cc1c(C)n(C(=O)c2ccc(Cl)cc2)c2ccc(OC)cc12` [Compound 1, Crotonoyloxymethyl[1-(p-chlorobenzoyl)-5-methoxy-2-methyl-3-indolyl]acetate], the ED50 in the series with carrageenan edema (setting [4]) was determined as 6 mg/kg. Further, the “anti-inflammatory activity compared with IM” value with carrageenan edema is on record as “equal anti-inflammatory activity to IM”. In series [1], this compound displayed a TD50 at 6 h of 15 mg/kg. Besides, in the series with ultraviolet erythema (3 mg/kg orally), the “2 hs … Average ± standard error” value stood at 1.50 ± 0.337; the “2 hs … for inhibition” value was found to be 43.8; the “3 hs … Average ± standard error” value amounted to 2.08 ± 0.193; the “3 hs … for inhibition” value is 26.5. Moreover, in the series on ultraviolet erythema (3 mg/kg orally), the “5 hs … Average ± standard error” value amounted to 1.92 ± 0.193 and the “5 hs … for inhibition” value worked out at 32.2. In the series with ultraviolet erythema (10 mg/kg orally), the “2 hs … Average ± standard error” value was found to be 1.17 ± 0.322; the “2 hs … for inhibition” value came out at 56.2; the “3 hs … Average ± standard error” value is given as 1.58 ± 0.288; the “3 hs … for inhibition” value turned out to be 44.2. In the series with ultraviolet erythema (10 mg/kg orally), the “5 hs … Average ± standard error” value stood at 1.92 ± 0.229 and the “5 hs … for inhibition” value is on record as 32.2. Moreover, the “duration of the pharmacological effect” value with ultraviolet erythema is reported as “over 5 hrs”. For the same compound, the “potentiating effect on thiopental-induced sleep relative to IM” value in the series on thiopental-induced sleep is recorded as 1/4.3. For the same compound, the ED50 in series [2] is 455 mg/kg. The metabolised at 1 h in series [3] was 88.9%. This compound also gave a 50% lethal dose (LD50) in the series “in vivo” of 105 mg/kg.

Consider `CC=CC=CC(=O)OC(C)OC(=O)Cc1ccccc1Nc1c(Cl)cccc1Cl` (centres unmarked) [Compound 21, 1-(2,4-Hexadienoyloxy)ethyl-2-(2,6-dichloroanilino)phenylacetate], for which the median effective dose (ED50) with carrageenan edema (setting [4]) was determined as 30 mg/kg. The compound also had a TD50 at 6 h in series [1] of more than 80 mg/kg. In the series with ultraviolet erythema (3 mg/kg orally), the “2 hs … Average ± standard error” value came out at 1.33 ± 0.211; the “2 hs … for inhibition” value is given as 50.2; the “3 hs … Average ± standard error” value came out at 3.00 ± 0; the “3 hs … for inhibition” value came to 0. Also, in the series with ultraviolet erythema (3 mg/kg orally), the “5 hs … Average ± standard error” value turned out to be 3.00 ± 0 and the “5 hs … for inhibition” value is 0. Besides, in the series with ultraviolet erythema (10 mg/kg orally), the “2 hs … Average ± standard error” value is listed as 1.50 ± 0.224; the “2 hs … for inhibition” value was 43.8; the “3 hs … Average ± standard error” value worked out at 2.50 ± 0.224; the “3 hs … for inhibition” value is reported as 11.7. Besides, in the series with ultraviolet erythema (10 mg/kg orally), the “5 hs … Average ± standard error” value is 2.50 ± 0.224 and the “5 hs … for inhibition” value came to 11.7. Further, the “inhibition effect for ultraviolet erythema compared with IM and DF” value in the series on ultraviolet erythema (relative to IM and DF) is “equal inhibition effect for ultraviolet erythema to that of IM and DF”. The compound also showed a metabolised at 1 h in series [3] of 78.2%. Further, the 50% lethal dose (LD50) in the series “in vivo” was determined as 790 mg/kg.
